Data from ChEMBL document CHEMBL2331213, “A flexible approach to 1,4-di-substituted 2-aminoimidazoles that inhibit and disperse biofilms and potentiate the effects of β-lactams against multi-drug resistant bacteria” (Eur J Med Chem, 2013).

Legend:
Staphylococcus aureus [1] = assay: Antibacterial activity against methicillin-resistant Staphylococcus aureus ATCC BAA-44 assessed as reduction of oxacillin MIC at 25% MIC by broth microdilution method relative to oxacillin-treated control; format: functional
Acinetobacter baumannii [2] = assay: Antibacterial activity against multidrug-resistant Acinetobacter baumannii ATCC BAA-1605 assessed as inhibition of biofilm growth after 24 hrs by crystal violet reporter assay; format: functional, organism-based
Staphylococcus aureus [3] = assay: Antibacterial activity against methicillin-resistant Staphylococcus aureus ATCC BAA-44 assessed as inhibition of biofilm growth after 24 hrs by crystal violet reporter assay; format: functional, organism-based; settings: ATCC BAA-44, 24 h
Acinetobacter baumannii [4] = assay: Antibacterial activity against multidrug-resistant Acinetobacter baumannii ATCC BAA-1605 assessed as growth inhibition by broth microdilution method; format: functional
Staphylococcus aureus [5] = assay: Antibacterial activity against methicillin-resistant Staphylococcus aureus ATCC BAA-44 assessed as growth inhibition by broth microdilution method; format: functional
Staphylococcus aureus [6] = assay: Antibacterial activity against methicillin-resistant Staphylococcus aureus ATCC BAA-44 assessed as dispersion of preformed biofilm after 24 hrs by crystal violet reporter assay; format: functional, organism-based; settings: ATCC BAA-44, 24 h
[7] = Acinetobacter baumannii, ATCC BAA-1605, 24 h, read-out: IC50

Compound	fold change (FC) (Staphylococcus aureus [1])	IC50 (Acinetobacter baumannii [2]; [7]) [µM]	IC50 (Staphylococcus aureus [3]) [µM]	MIC (Acinetobacter baumannii [4]) [µM]	MIC (Staphylococcus aureus [5]) [µM]	IC50 (Acinetobacter baumannii [2])	EC50 (Staphylococcus aureus [6]) [µM]
CCCCCc1ccc(C(=O)NCCn2cc(CCCCCc3cn(CCCC)c(N)n3)nn2)cc1.Cl	0	53.8	10.8	100	25	–	–
C=CCn1cc(CCCCCc2cn(CCNC(=O)c3ccc(CCCCC)cc3)nn2)nc1N.Cl	2	–	13.2	200	50	ND(toxic)	–
CCCCCc1ccc(C(=O)NCCn2cc(CCCCCc3cn(CCc4ccccc4)c(N)n3)nn2)cc1.Cl	0	39.2	9.9	100	25	–	33
CCCCCc1ccc(C(=O)NCCn2cc(CCCCCc3cn(CC(C)C)c(N)n3)nn2)cc1.Cl	4	98.6	24	200	50	–	–
CCCCCc1ccc(C(=O)NCCn2cc(CCCCCc3cn(C4CCCCC4)c(N)n3)nn2)cc1.Cl	2	–	18.7	200	25	ND(toxic)	–
CCCCCCn1cc(CCCCCc2cn(CCNC(=O)c3ccc(CCCCC)cc3)nn2)nc1N.Cl	0	26.2	6.2	100	12.5	–	41
CCCCCc1ccc(C(=O)NCCn2cc(CCCCCc3cn(CCCCC)c(N)n3)nn2)cc1.Cl	0	31.4	4.14	100	12.5	–	45.1
CCCCCc1ccc(C(=O)NCCn2cc(CCCCCc3cn(Cc4ccccc4)c(N)n3)nn2)cc1.Cl	0	33.9	7.16	100	12.5	–	39.6
CCCCCc1ccc(C(=O)NCCn2cc(CCCCCc3c[nH]c(N)n3)nn2)cc1.Cl	4	–	–	–	–	–	–
CCCCCc1ccc(C(=O)NCCn2cc(CCCCCc3cn(-c4ccccc4)c(N)n3)nn2)cc1.Cl	0	49.8	25.1	> 200	25	–	–
CCCCCc1ccc(C(=O)NCCn2cc(CCCCCc3cn(C(C)C)c(N)n3)nn2)cc1.Cl	0	–	> 100	> 200	200	ND(toxic)	–
CCCCCc1ccc(C(=O)NCCn2cc(CCCCCc3cn(C4CC4)c(N)n3)nn2)cc1.Cl	2	–	> 100	> 200	100	ND(toxic)	–
CCCCCc1ccc(C(=O)NCCn2cc(CCCCCc3cn(C4CCCC4)c(N)n3)nn2)cc1.Cl	2	33.7	9.01	100	25	–	34.5
